# Target: GABA-A receptor; anion channel
# Experiment: Inhibition of [3H]- flunitrazepam binding to GABA-A Benzodiazepine receptor of rat cerebral cortex membranes
# Format: cell membranes, Membrane
row,SMILES,IC50
1,O=CNc1cc2c3ccccc3nc-2c[nH]1,4.7 µM
2,CCOC(=O)c1cc2c(cn1)[nH]c1ccccc12,0.002 µM
3,O=C(Nc1cc2c3ccccc3nc-2c[nH]1)C(F)(F)F,6.3 µM
4,Nc1cc2c(cn1)[nH]c1ccccc12,25 µM
5,CS(=O)(=O)Nc1cc2c3ccccc3nc-2c[nH]1,62 µM

# Second part, the molecule after the results:
row,IC50,SMILES
1,0.071 µM,COC(=O)Nc1cc2c3ccccc3nc-2c[nH]1
2,0.46 µM,CCNc1cc2c3ccccc3nc-2c[nH]1
3,0.08 µM,CCOC(=O)Nc1cc2c3ccccc3nc-2c[nH]1
4,4 µM,CC(=O)Nc1cc2c3ccccc3nc-2c[nH]1

# Source: ChEMBL document CHEMBL1123021, “3-Amino-beta-carboline derivatives and the benzodiazepine receptor. Synthesis of a selective antagonist of the sedative action of diazepam” (J Med Chem, 1985)
